{
  "source": "patent EP0713704A1",
  "about": "“2-Amino-1,3-thiazines as nitric oxide synthase inhibitors” (HOECHST AKTIENGESELLSCHAFT, priority 1994, dated 1996)",
  "key": {"NO-Synthase (iNOS)": {"molecular_target": "T1, NO-Synthase (iNOS) (Mus musculus, UniProt P29477)", "T1 construct": "wird die Neusynthese des NO-produzierenden Enzyms NO-Synthase (iNOS) induziert; endogenous in cells; host or cells: RAW 264.7 mouse macrophages stimulated with LPS and γ-interferon", "test": "NO measurement by oxyhaemoglobin on macrophages (inhibition of NO release, LPS/γIFN-stimulated)", "assay_type": "cell-based, Maus", "conditions": "Mäusemakrophagen RAW 264.7, stimulated with LPS + γIFN for 4 h, 120 min incubation with test substance; read-out: IC₅₀-Wert", "method": "Die Hemmung der NO-Freisetzung durch die Verbindungen der allgemeinen Formel I kann auch durch NO-Messung mittels Oxyhämoglobin auf Makrophagen wie folgt bestimmt werden:\nDie subkonfluenten Zellen werden mit dem Zellschaber abgekratzt, in Medium aufgenommen, die Zellzahl bestimmt (Zählung in Trypanblaulösung 0,2 %) und in 24-Napfplatten (1 x 10⁶ Zellen/ml, 1 ml/Napf) ausgesät.\nDazu wird das Kulturmedium von den Zellen abgesaugt und 1 ml/Napf (24-Napfplatte) Inkubationsmedium (MEM ohne Phenolrot (Biochrom F0385)), konditioniert mit 4mM Glutamin, 3,5 g Glukose/l, 3,7 g NaHCO₃/l, 110 mg Natriumpyruvat/l, 50 U/50 µg/ml Pen/Strep und 5 % FKS, aufgegeben. Pro ml Inkubationsmedium werden 1 µl LPS und 1 µl γIFN pipettiert.\nDaraus ergeben sich folgende Konzentrationen der Stimulatoren: 140 ng LPS/ml + 5 U γIFN/ml [formula] Während der Stimulation über 4 Stunden wird die Neusynthese des NO-produzierenden Enzyms NO-Synthase (iNOS) induziert. Nach diesem Inkubationszeitraum wird das Inkubationsmedium abgesaugt und jeder Napf zweimal mit frischem Inkubationsmedium gespült. […] Als Kontrolle wird das konditionierte Versuchsmedium nur mit dem Lösungsmittel der Testsubstanz versetzt.\nNach dem Abpipettieren des Versuchsmediums wird die Cytotoxizität der Testsubstanz geprüft (Zellviabilität)."}, "[1]": {"molecular_target": "induzierbaren NO-Synthase (Homo sapiens, UniProt P35228)", "test": "NO synthase activity assay: quantification of coproduct 3H-L-citrulline formed from 3H-L-arginine", "assay_type": "biochemical", "conditions": "read-out: Restaktivität", "description": "Die erfindungsgemäße Hemmung der NO-Freisetzung durch die Verbindungen der allgemeinen Formel I kann durch einen Aktivitätsassay bestimmt werden, der auf Arbeiten von Bredt und Snyder sowie Schmidt et al. basiert (s. D.S. Bredt und S.S. Snyder, Isolation of nitric oxide synthase, a calmodulin-requiring enzyme, Proc. Natl. Acad. Sci. USA 87 (1990), 682; H.H.H.W.Schmidt et al., Purification of a soluble isoform of guanylyl cyclase-activating factor synthase, Proc. Natl. Acad. Sci. USA 88 (1991), 365). Hierbei wird für gereinigte NO-Synthase (NOS) das bei der NO-Bildung anfallende Coprodukt L-Citrullin quantitativ erfaßt. Dies geschieht durch den Einsatz von ³H-radiomarkiertem L-Arginin als Substrat der Enzymreaktion, das zu ³H-L-Citrullin und NO umgesetzt wird. Nach Beendigung der Enzyminkubation wird […]; die durch Flüssigkeitsszintillationsmessung ermittelte ³H-Aktivität entspricht dann der Menge an L-Citrullin.\n• a) Die Substanz ist analog Beispiel 2 erhältlich. Weiße Kristalle vom Schmp. 153 °C. • b) Die pharmakologische Wirkung wurde in dem oben beschriebenen Aktivitätsassy ermittelt, bei dem das von der NO-Synthase als Coprodukt gebildete Citrullin bestimmt wird. Es wurden folgende Hemmungen der induzierbaren NO-Synthase beobachtet: […]"}},
  "note": "Structures can show the parent of a compound that is named as a salt.",
  "data": [
    {"smiles": "NC1=NCCCS1", "note": "[Beispiel 1, 2-Amino-5,6-dihydro-4H-1,3-thiazin-Hydrobromid]", "values": [
      {"measurement": "IC50", "setting": "NO-Synthase (iNOS)", "value": 1300, "unit": "nM"}
    ]},
    {"smiles": "CC1(C)CCSC(N)=N1", "note": "[Beispiel 3, 2-Amino-4,4-dimethyl-5,6-dihydro-1,3-thiazin-Hydrochlorid]", "values": [
      {"measurement": "activity at 1 µM", "setting": "[1]; Konzentration: 1 µM", "value": 15, "unit": "%"},
      {"measurement": "activity at 10 µM", "setting": "[1]; Konzentration: 10 µM", "value": 12, "unit": "%"}
    ]}
  ]
}
